Experimental data: ChEMBL document CHEMBL1201862, “PubChem BioAssay data set” (2004)
Activity calls are given as the source filed them.

Experiments:
[1] = biological target: T1, Long-chain-fatty-acid--AMP ligase FadD28 (Mycobacterium tuberculosis, UniProt P9WQ59); test: Fluorescence polarization aasay to screen for inhibitors that compete for the binding of FadD28 to a bisubstrate Measured in Biochemical System Using Plate Reader - 2147-01_Inhibitor_Dose_CherryPick_Activity.; assay type: functional, Mycobacterium tuberculosis H37Rv
T1 sequence (P9WQ59 whole entry): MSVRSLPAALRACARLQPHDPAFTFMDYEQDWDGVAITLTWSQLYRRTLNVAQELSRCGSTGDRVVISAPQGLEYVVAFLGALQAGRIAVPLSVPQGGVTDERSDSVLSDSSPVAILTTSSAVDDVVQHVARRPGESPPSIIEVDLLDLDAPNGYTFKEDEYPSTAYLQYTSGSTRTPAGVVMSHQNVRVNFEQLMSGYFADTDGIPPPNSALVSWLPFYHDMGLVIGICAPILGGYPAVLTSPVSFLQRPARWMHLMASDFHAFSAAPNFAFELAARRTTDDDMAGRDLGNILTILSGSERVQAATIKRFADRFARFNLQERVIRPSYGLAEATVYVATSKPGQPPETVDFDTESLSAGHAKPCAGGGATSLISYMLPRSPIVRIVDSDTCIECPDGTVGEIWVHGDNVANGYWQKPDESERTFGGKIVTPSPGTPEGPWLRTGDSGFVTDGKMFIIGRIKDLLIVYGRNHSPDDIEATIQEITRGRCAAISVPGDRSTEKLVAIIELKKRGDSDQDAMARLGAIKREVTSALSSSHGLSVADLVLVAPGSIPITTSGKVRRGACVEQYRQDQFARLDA

P388 = test: cells; assay type: functional; settings: Mus musculus
SN12K1 = test: cells; assay type: functional; settings: Homo sapiens
P388/ADR = test: cells; assay type: functional; settings: Mus musculus
[2] = microbe, parasite or virus in culture; assay type: functional; settings: Mycobacterium tuberculosis
Fatty acid synthase [3] = biological target: T2, Fatty acid synthase (Homo sapiens, UniProt P49327); test: FAS thioesterase domain inhibitors, dose response, biochemical, endpoint fluorescence intensity, uHTS hits (AID 624327); assay type: functional;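 also: fluorescence from hydrolysis of an O-methyl fluorescein acyl ester substrate by the enzyme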
T2 sequence (P49327 whole entry, the tested form may be a part): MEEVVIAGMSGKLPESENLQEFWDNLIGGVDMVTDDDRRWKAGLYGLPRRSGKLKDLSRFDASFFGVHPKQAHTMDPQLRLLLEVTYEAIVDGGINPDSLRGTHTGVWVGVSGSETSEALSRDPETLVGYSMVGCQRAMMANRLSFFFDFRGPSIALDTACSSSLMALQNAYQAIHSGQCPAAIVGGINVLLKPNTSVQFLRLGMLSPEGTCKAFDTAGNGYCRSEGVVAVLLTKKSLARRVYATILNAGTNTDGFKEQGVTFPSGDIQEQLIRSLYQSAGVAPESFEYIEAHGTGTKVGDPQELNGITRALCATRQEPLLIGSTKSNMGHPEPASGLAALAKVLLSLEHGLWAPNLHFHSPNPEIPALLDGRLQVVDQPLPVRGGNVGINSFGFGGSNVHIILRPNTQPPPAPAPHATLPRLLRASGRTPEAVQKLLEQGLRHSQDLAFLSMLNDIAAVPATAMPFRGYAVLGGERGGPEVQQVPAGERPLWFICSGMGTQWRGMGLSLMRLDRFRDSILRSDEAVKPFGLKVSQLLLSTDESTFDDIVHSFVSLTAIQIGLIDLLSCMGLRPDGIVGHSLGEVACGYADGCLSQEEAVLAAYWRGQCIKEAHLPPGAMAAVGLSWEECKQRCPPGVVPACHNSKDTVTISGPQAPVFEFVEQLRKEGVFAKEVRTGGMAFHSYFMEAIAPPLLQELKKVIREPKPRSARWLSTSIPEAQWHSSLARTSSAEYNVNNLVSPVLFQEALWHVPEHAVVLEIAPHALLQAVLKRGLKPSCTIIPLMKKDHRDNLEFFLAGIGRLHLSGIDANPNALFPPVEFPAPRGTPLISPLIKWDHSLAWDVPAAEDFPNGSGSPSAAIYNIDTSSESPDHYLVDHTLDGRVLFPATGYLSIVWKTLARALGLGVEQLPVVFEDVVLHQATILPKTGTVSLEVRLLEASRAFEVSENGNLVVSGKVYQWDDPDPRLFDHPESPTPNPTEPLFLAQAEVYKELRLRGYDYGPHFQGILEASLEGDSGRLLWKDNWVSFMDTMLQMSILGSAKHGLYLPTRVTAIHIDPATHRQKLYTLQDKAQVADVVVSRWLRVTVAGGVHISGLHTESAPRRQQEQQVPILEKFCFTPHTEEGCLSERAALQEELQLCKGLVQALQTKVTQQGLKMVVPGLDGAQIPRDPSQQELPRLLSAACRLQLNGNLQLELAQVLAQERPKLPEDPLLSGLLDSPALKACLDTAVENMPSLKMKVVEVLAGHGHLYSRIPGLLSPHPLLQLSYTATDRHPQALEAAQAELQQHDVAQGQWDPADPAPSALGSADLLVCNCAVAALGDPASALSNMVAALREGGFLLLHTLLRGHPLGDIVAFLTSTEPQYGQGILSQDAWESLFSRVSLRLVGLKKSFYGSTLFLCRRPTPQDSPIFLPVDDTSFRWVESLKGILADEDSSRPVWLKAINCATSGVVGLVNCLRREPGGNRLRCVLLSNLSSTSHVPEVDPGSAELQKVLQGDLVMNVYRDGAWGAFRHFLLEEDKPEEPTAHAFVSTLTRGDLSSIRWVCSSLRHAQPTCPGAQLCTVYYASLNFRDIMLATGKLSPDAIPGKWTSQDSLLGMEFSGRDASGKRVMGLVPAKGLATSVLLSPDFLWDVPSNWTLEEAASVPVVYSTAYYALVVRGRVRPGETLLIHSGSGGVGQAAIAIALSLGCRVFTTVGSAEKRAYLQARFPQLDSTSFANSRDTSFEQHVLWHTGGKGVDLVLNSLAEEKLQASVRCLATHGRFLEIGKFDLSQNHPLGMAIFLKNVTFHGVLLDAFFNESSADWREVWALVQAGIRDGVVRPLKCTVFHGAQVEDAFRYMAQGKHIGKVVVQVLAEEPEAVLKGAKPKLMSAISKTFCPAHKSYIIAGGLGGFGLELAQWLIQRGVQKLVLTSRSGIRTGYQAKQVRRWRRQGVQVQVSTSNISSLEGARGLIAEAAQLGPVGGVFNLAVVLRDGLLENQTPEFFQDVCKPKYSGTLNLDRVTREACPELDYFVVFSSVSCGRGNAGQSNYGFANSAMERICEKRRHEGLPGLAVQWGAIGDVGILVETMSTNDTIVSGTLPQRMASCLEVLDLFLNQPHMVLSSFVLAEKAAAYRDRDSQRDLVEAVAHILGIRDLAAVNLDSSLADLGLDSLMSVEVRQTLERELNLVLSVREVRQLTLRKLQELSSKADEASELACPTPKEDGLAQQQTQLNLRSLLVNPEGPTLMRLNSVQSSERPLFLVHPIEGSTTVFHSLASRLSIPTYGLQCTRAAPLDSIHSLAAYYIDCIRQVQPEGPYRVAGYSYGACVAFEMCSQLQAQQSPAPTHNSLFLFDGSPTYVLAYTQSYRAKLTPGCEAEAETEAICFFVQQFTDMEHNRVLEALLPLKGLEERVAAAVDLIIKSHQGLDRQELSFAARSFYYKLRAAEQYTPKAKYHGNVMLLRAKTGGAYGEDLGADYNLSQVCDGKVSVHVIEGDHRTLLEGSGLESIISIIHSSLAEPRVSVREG

Fatty acid synthase [4] = biological target: T2, Fatty acid synthase; test: FAS thioesterase domain inhibitors, dose response, biochemical, kinetic fluorescence intensity (AID 624326); assay type: functional;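 also: rate of fluorescence rise from hydrolysis of a fluorogenic O-methyl fluorescein ester substrate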
Aminopeptidase N = biological target: T3, Aminopeptidase N (Plasmodium falciparum FcB1/Columbia, UniProt O96935); test: P. falciparum M1AAP inhibitors, biochemical, fluorogenic H-Leu-NHMec substrate, 1536-well (AID 1445); parameters: species or system Plasmodium falciparum 3D7, 3D7
T3 sequence (O96935 whole entry): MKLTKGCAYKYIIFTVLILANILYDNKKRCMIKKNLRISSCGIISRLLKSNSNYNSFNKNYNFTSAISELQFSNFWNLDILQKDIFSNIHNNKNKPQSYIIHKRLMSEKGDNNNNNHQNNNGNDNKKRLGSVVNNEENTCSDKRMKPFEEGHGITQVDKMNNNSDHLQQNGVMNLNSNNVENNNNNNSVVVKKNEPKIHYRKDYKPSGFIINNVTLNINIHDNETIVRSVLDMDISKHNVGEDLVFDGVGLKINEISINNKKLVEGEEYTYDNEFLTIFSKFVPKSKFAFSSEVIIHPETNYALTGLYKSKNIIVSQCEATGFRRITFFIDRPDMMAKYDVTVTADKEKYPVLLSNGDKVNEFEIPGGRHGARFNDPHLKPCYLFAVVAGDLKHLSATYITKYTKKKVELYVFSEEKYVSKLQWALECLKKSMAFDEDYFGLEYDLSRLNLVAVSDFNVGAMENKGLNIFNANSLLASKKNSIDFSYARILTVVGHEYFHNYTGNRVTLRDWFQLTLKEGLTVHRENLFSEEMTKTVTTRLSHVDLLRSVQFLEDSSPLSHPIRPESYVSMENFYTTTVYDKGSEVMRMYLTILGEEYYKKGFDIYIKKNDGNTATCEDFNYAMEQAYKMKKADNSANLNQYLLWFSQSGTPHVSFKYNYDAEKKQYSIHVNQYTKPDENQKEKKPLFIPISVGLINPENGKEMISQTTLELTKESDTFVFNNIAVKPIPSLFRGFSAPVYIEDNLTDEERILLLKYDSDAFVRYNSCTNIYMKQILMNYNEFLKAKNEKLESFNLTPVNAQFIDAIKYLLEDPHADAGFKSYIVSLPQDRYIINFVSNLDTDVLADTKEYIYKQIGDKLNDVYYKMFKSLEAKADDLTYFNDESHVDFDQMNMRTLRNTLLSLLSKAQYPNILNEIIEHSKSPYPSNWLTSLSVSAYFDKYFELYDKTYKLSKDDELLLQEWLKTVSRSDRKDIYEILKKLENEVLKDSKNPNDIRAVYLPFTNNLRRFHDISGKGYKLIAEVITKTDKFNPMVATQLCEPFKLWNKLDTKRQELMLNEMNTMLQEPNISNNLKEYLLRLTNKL

[5] = growth suppression of beta-catenin-knockout colon cells, dose response, cell-based, HCT116, human colon tumor (AID 1045); assay type: functional;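 also: HCT116 colon tumor cells with beta catenin knocked out; cells exposed to compound for 60 hours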
[6] = growth suppression of PTEN-null colon cells, dose response, cell-based, HCT116 PTEN knockout (AID 1047); assay type: functional;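 also: HCT116 colon tumor cells with PTEN knocked out; cells exposed to compound for 60 hours before readout; potency for loss of cell viability measured by luminescence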
[7] = biological target: T4, Calpain-2 catalytic subunit (Sus scrofa, UniProt P43367); test: pig calpain II inhibitor potency, dose response, biochemical, fluorogenic peptide substrate (AID 1420); assay type: functional
T4 sequence (P43367 whole entry): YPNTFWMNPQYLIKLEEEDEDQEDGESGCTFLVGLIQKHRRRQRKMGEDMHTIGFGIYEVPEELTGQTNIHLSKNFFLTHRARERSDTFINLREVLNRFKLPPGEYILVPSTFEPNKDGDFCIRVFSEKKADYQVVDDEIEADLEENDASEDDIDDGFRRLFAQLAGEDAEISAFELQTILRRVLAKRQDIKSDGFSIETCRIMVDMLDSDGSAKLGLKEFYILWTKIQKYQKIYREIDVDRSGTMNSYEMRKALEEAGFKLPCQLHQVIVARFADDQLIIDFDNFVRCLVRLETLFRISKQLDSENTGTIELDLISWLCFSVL

[8] = biological target: T5, Histone-lysine N-methyltransferase NSD2 (Homo sapiens, UniProt O96028); assay type: biochemical
T5 sequence (O96028 whole entry): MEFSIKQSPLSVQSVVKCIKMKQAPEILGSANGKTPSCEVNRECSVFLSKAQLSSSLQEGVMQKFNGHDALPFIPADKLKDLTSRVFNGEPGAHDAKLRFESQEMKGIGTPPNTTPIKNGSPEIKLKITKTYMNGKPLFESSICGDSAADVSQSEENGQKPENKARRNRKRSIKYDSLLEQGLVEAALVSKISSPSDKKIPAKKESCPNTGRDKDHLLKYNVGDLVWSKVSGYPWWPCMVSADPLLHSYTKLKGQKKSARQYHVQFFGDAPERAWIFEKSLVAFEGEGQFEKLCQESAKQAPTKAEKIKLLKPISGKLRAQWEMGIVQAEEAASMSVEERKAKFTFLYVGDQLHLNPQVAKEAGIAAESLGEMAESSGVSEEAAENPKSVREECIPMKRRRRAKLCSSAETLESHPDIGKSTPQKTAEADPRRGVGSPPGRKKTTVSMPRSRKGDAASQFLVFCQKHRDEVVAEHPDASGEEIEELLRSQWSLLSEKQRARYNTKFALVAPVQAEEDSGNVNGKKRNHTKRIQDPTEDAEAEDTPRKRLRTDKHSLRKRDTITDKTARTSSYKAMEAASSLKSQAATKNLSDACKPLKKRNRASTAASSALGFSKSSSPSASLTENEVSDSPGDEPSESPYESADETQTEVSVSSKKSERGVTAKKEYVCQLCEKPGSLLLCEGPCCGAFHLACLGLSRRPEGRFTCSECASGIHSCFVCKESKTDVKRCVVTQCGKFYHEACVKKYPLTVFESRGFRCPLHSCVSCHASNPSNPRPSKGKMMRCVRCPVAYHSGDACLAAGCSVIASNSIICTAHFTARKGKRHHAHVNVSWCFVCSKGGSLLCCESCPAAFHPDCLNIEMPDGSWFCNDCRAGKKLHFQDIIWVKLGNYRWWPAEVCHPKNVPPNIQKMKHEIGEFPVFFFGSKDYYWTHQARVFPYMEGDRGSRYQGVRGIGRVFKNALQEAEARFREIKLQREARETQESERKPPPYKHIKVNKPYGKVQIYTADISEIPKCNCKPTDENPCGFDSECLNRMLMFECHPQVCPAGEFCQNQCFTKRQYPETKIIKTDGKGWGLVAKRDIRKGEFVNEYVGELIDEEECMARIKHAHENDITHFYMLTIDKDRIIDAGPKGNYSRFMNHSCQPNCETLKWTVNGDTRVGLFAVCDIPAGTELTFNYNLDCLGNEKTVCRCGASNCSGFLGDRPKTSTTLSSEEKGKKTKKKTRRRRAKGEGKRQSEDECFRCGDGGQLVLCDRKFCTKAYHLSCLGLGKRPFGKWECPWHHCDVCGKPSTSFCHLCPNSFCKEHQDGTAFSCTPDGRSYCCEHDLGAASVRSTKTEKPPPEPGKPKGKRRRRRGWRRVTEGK

[9] = biological target: Heat shock protein HSP 90-alpha (Homo sapiens, UniProt P07900); assay type: functional, organism-based

With CCN(c1ccc(NC(=O)CSc2ccc3c(c2)OCCO3)cc1)C(C)C the AC50 [1] was 20.3 µM (active).

With COC(=O)NC1C(C)OC(OC2C/C=C(/C)C3C=CC4C(OC5CC(OC6CCC(OC7CC(O)C(OC8CCC(O)C(C)O8)C(C)O7)C(C)O6)C(OC(C)=O)C(C)O5)C(C)CC(C)C4C3(C)/C(O)=C3/C(=O)OC4(CC(C=O)=CC(O)C4/C=C\2C)C3=O)CC1(C)[N+](=O)[O-] (stereo not given) the GI50 (P388) was 0.337 µM (active), the GI50 (SN12K1) was 0.262 µM (active) and the GI50 (P388/ADR) was 2.64 µM (inactive).

In the case of N#C/C(=N\Nc1ccc([N+](=O)[O-])cc1)C(N)=S, the AC50 [1] is reported as 19.5 µM (active).

With CCCCCn1c(CN2CCN(c3cccc(Cl)c3)CC2)nc2c1c(=O)[nH]c(=O)n2C the CC50 [2] was > 40 µM (active).

With CC(=O)c1cccc2c1OC(C)C(=O)N2Cc1ccc(Cl)cc1 (stereo not given) the IC50 (Fatty acid synthase [3]) was 9.15 µM (active) and the IC50 (Fatty acid synthase [4]) was 5.63 µM (active).

For CCn1cc(CN2CCC(C(=O)Nc3ccc(Oc4cccnc4)cc3)CC2)c(C)n1, the AC50 [1] was 21.7 µM (active).

In the case of COc1cc(/C=C2\SC(=O)N(CC(=O)Nc3cccc(C)c3)C2=O)ccc1OC(C)C(=O)O (stereo not given), the AC50 [1] is reported as 0.583 µM (active).

For C/C(NNC(=O)c1ccccc1O)=C1/C(=O)NC(=O)N(Cc2ccccc2)C1=O, the IC50 (Aminopeptidase N) was 19.2 µM (active) and the AC50 [1] was 20.4 µM (active).

With Cc1ccc(S(=O)(=O)c2nnn3c2nc(NCCCN2CCCC2=O)c2ccccc23)cc1C the IC50 (Fatty acid synthase [3]) was 5.19 µM (active) and the IC50 (Fatty acid synthase [4]) was 2.85 µM (active).

With Cc1oc(-c2cccc(Cl)c2)nc1CN1CCC(C(=O)N2CCN(c3ccccc3F)CC2)CC1 the CC50 [2] was 28.9 µM (active), the EC50 [5] was 14.5 µM (active) and the EC50 [6] was 15.5 µM (active).

For C=CC(=O)NC(=N)NC#N, the GI50 (P388) was 12.8 µM (inactive), the GI50 (SN12K1) was > 100 µM (inactive) and the GI50 (P388/ADR) was 25.8 µM (inactive).

With Cn1cc(/C=N/NC(=O)COc2ccccc2[N+](=O)[O-])c2ccccc21 the AC50 [1] was > 100 µM (inactive).

For O=C1NC(=S)S/C1=C\c1cc2ccccc2nc1N1CCCCC1, the IC50 [7] was 1.63 µM (not active), the AC50 [8] was 11.1 µM (active) and the IC50 (Fatty acid synthase [3]) was 46 µM (inactive). The AC50 [9] was 3.98 µM (active) and the IC50 (Fatty acid synthase [4]) was 11.2 µM (active).

With C=CCCCCn1c2ccccc2c2c(C)c3cnccc3c(C)c21 the GI50 (P388) was 1.93 µM (inactive), the GI50 (SN12K1) was 5.97 µM (inactive) and the GI50 (P388/ADR) was 1.84 µM (inactive).

With COc1cccc(NC(=O)CN2C(=O)CSc3ccc(S(=O)(=O)N4CCCCC4)cc32)c1 the IC50 (Fatty acid synthase [3]) was 8.72 µM (active) and the IC50 (Fatty acid synthase [4]) was 9.58 µM (active).

For C/C=C/c1cc2c(c(=O)o1)C(=O)[C@@H](O)[C@H](C)O2, the GI50 (P388) was 2.77 µM (inactive), the GI50 (SN12K1) was 17.1 µM (inactive) and the GI50 (P388/ADR) was 2.89 µM (inactive).

In the case of Cc1cc(C(=O)CCl)c(C)n1-c1cccc([N+](=O)[O-])c1, the CC50 [2] is reported as 13.5 µM (active).
